We go through twelve compounds from PubChem BioAssay (NCI).

The structures appear in SMILES notation.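 The compound was tested at five concentrations on cells cultured in 96-well plates, with a 48-hour exposure period. GI50 = concentration required for 50% inhibition of growth. At the TGI there is no net growth.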 *1 amine or outer side, *2 acyl side, *3 side chain or, on linkers, in order; H or OH if unused. Where a SMILES comes first, the peptide text is derived from it. Bridges are numbered along the chain shown (N, C = ends). Roman numbers before positions name the chains, in order. X23 = CCCCCCCCCCCCCCC(=O)NC(CCCCN[*:2])C(=O)CN1CCCC1C(=O)[*:1] Where only a bound is given, the exact number is not on record here.

Test in all cases: inhibition of tumour cell growth, NCI panel, 48 h
The test system of experiment [1] is HOP-92 NSCLC.
The subject of experiment [2] is SK-MEL-28 melanoma.
Experiment [3] relates to U251 CNS.
The subject of experiment [4] is SK-MEL-5 melanoma.
The test system of experiment [5] is K-562 leukemia.
In experiment [6] the test system is COLO 205 colon.
The subject of experiment [7] is OVCAR-8 ovarian.
For experiment [8], the system named is MOLT-4 leukemia.
Experiment [9] deals with IGROV1 ovarian.
Experiment [10] concerns SNB-75 CNS.

Turning to `CN(CCNC(=O)c1cn(C)c2c1ccc1cc(Cl)ccc12)CCNC(=O)c1cn(C)c2c1ccc1cc(Cl)ccc12`, the TGI is 18.8 µM in experiment [1]; 10.9 µM in experiment [2]; > 100 µM in experiment [3]; > 26.9 µM in experiment [4]; 13.6 µM in experiment [5]; 2.57 µM in [6]. The values for the TGI in experiment [7], in [8] and in experiment [9] were 33.8 µM, 11.3 µM and 21.6 µM, respectively.
As to `OCCSCc1cc(Cl)cc(Cl)c1O`, the TGI in experiment [1], in experiment [2], in experiment [3], in experiment [4], in experiment [5] and in experiment [6] was > 100 µM in each case. The TGI in experiment [7], in experiment [8] and in experiment [9] was > 100 µM throughout.
Take `O=C1CSc2sc(=S)sc2S1`: the TGI in experiment [1], in [2], in experiment [10], in [3], in experiment [4] and in experiment [5] was > 100 µM throughout. In addition, the TGI in experiment [6], in experiment [7], in experiment [8] and in experiment [9] was > 100 µM each time.
`Cc1cc(O)c2cc3c(O)c(O)ccc3cc2c1`: the TGI is > 22.8 µM in [1]; > 58.8 µM in experiment [2]; 8.95 µM in experiment [10]; 18.1 µM in [3]; 1.07 µM in experiment [4]; 3.33 µM in experiment [5]. The TGI in experiment [6] came to 1.46 µM; in experiment [7] it was 11.2 µM; in experiment [8], 5.75 µM; in experiment [9], 10.8 µM.
With `CC(C)(C)OC(=O)N1CCCC1C(=O)NCCNc1ccc(NCCNC(=O)C2CCCN2C(=O)OC(C)(C)C)c2c1C(=O)c1ccccc1C2=O` (stereo unspecified), the TGI is 30.1 µM in experiment [1]; 35.6 µM in experiment [2]; 87.9 µM in [10]; 44.6 µM in experiment [3]; > 100 µM in experiment [5]; 27.5 µM in experiment [6]. Also, the TGI in [7] is 21 µM; in experiment [8], > 100 µM; in experiment [9], 31.7 µM.
As to `O=C1NC2(NC(=O)C1=O)Nc1ccccc1S2`, the TGI in [1] is > 100 µM; in [2], > 100 µM; in experiment [10] it was > 100 µM; in [3] it was > 82.5 µM; in [4] it was > 100 µM; in experiment [5] it was > 64.7 µM. The TGI is > 54.9 µM in experiment [6], > 100 µM in experiment [7], > 92.5 µM in experiment [8] and > 100 µM in experiment [9].
As for `Cc1ccc(NC(=O)CC(=O)n2nc(-c3ccccc3)c(N=Nc3ccccc3C(=O)O)c2-c2ccccc2)cc1`, the TGI in experiment [1], in experiment [2], in experiment [4], in experiment [5], in experiment [6] and in experiment [7] was > 100 µM in each case. The TGI in experiment [8] and in [9] was > 100 µM throughout.
For the compound `Nc1nccc2c1ncn2C1C=C(CO)C(O)C1O` (stereo unspecified), the GI50 in experiment [1] was > 1000 µM; in experiment [2], 0.852 µM; in experiment [10], > 1000 µM; in experiment [3], 1.61 µM; in experiment [5], 0.249 µM; in experiment [6], 7.35 µM. Also, the GI50 was 23.9 µM in [7], 0.768 µM in experiment [8] and > 1000 µM in experiment [9]. Moreover, the TGI in experiment [1], in experiment [2], in experiment [10], in experiment [3], in [4] and in [5] was > 1000 µM in each case. Moreover, the TGI in experiment [6], in experiment [7], in experiment [8] and in [9] was > 1000 µM throughout.
Regarding `O=C1/C(=C/c2ccc3c(c2)OCO3)Sc2scc(-c3ccc(O)c(O)c3)[n+]21`, the TGI in [1] is 7.58 µM; in [2] it was > 100 µM; in experiment [10], 5.54 µM; in experiment [3] it was 37.9 µM; in [4], > 22.4 µM; in experiment [5] it was 2.93 µM. The TGI in [6] was > 19.7 µM; in [7], 9.94 µM; in [8], > 20.1 µM; in experiment [9], 8.09 µM.
`CCCCCCCCCCCCCCC(=O)NC(CCCCNC(=O)C1CCCN1C(=O)C(CCCCN)NC(=O)C(CCCCN)NC(=O)C(CCCCN)NC(=O)C(CCCNC(=N)N)NC(=O)C(CCCCN)NC(=O)C(N)C(C)C)C(=O)CN1CCCC1C(=O)NCC(=O)NC(Cc1ccccc1)C(=O)N1CCCC1C(=O)NC(CO)C(=O)NC(Cc1ccc(O)cc1)C(=O)NC(CCCCN)C(=O)NC(CC(C)C)C(=O)NC(CCCNC(=N)N)C(=O)N1CCCC1C(=O)NCC(N)=O` (stereo unspecified) (I: GFPSYKLRPG-NH2 / II: H-VKRKKKP; linker I:N-II:C via X23; configuration not given here): the GI50 in [1] is 27 µM; in [2], 11.3 µM; in experiment [10], 31.5 µM; in experiment [4] it was 8.01 µM; in [5] it was 9.27 µM; in experiment [6] it was 2.66 µM. For the same compound, the values for the GI50 in experiment [7], in experiment [8] and in [9] were 26.3 µM, 18.7 µM and 14.8 µM, respectively. Also, the TGI was 65.1 µM in experiment [1]; 98.6 µM in [2]; 76.7 µM in experiment [10]; > 100 µM in experiment [4]; 44.4 µM in experiment [5]; 15.6 µM in experiment [6]. Also, the TGI in experiment [7] was 85.8 µM; in experiment [8], 44 µM; in [9] it was 52.4 µM.
As to `O=[P+](O)c1cccs1`, the TGI in [1], in experiment [2], in experiment [3], in [4], in experiment [5] and in experiment [6] was > 100 µM in each case. Further, the TGI in experiment [7], in [8] and in experiment [9] was > 100 µM each time.
With `CCc1cccc(C(C)C)c1NC1=C([n+]2ccc(C)cc2)C(=O)c2ccccc2C1=O`, the TGI in experiment [1] worked out at 7.06 µM; in experiment [2], 20.8 µM; in [10], 7.32 µM; in experiment [3], 12.1 µM; in experiment [4], 4.66 µM; in experiment [5], 20.3 µM. For the same compound, the TGI in experiment [6] is 2.57 µM; in [7], 4.79 µM; in [8], 9.43 µM; in experiment [9], 8.18 µM.
